Test: Stability of CV-8972 in aqueous solution at different concentrations and pH
Assay type: physicochemical
Experimental: The stability of CV-8972 was analyzed. Aqueous samples containing CV-8972 at different concentrations and pH were incubated for various periods and analyzed.
Form A of CV-8972 were analyzed for stability in aqueous solution. Aqueous samples containing CV-8972 at different concentrations and pH were incubated for various periods and analyzed.

[1] = 276-MBA-172 2 mg/mL pH 6 (Form A), 0 hrs, pH 6.1
[2] = 276-MBA-172 2 mg/mL pH 6 (Form A), 1 hrs, pH 6.1
[3] = 276-MBA-172 2 mg/mL pH 6 (Form A), 4 hrs, pH 6.1
[4] = 276-MBA-172 2 mg/mL pH 6 (Form A), 6 hrs, pH 6.1
[5] = 276-MBA-172 2 mg/mL pH 7 (Form A), 0 hrs, pH 6.7
[6] = 276-MBA-172 2 mg/mL pH 7 (Form A), 1 hrs, pH 6.8
[7] = 276-MBA-172 2 mg/mL pH 7 (Form A), 4 hrs, pH 6.7
[8] = 276-MBA-172 2 mg/mL pH 7 (Form A), 6 hrs, pH 6.7
[9] = 276-MBA-172 2 mg/mL pH 7 (Form A), 22 hrs, pH 6.8
[10] = 276-MBA-172 10 mg/mL pH 6 (Form A), 0 hrs, pH 6.6
[11] = 276-MBA-172 10 mg/mL pH 6 (Form A), 1 hrs, pH 6.8
[12] = 276-MBA-172 10 mg/mL pH 6 (Form A), 4 hrs, pH 6.8
[13] = 276-MBA-172 10 mg/mL pH 6 (Form A), 6 hrs, pH 6.7
[14] = 276-MBA-172 10 mg/mL pH 6 (Form A), 22 hrs, pH 6.7
[15] = 276-MBA-172 10 mg/mL pH 7 (Form A), 0 hrs, pH 7.1
[16] = 276-MBA-172 10 mg/mL pH 7 (Form A), 1 hrs, pH 7.2
[17] = 276-MBA-172 10 mg/mL pH 7 (Form A), 4 hrs, pH 7.1
[18] = 276-MBA-172 10 mg/mL pH 7 (Form A), 6 hrs, pH 7.1
[19] = 289-MBA-15-A 2 mg/mL pH 6 (Form B), 0 hrs, pH 6.9
[20] = 289-MBA-15-A 2 mg/mL pH 6 (Form B), 1 hrs, pH 6.9
[21] = 289-MBA-15-A 2 mg/mL pH 6 (Form B), 4 hrs, pH 6.8
[22] = 289-MBA-15-A 2 mg/mL pH 6 (Form B), 6 hrs, pH 6.8

Question: Which “Retention Time 4.2” value [1] does the source give for `COc1ccc(CN2CCN(CCOC(=O)c3cccnc3)CC2)c(OC)c1OC` [CV-8972, 2-(4-(2,3,4-trimethoxybenzyl)piperazin-1-yl)ethyl nicotinate] here?
Answer: 1.29

Question: And the “Retention Time 5.6” value [1]?
Answer: 98.01

Question: And the “Decrease in purity of CV-8972 between time points” value (“Decrease in purity” below) [2]?
Answer: 0.79

Question: What about the “Retention Time 2.2” value [2] of the same compound?
Answer: 1.5

Question: And the “Retention Time 4.2” value [2]?
Answer: 1.28

Question: What about the “Retention Time 5.6” value [2] of the same compound?
Answer: 97.22

Question: What about the “Decrease in purity” value [3] of the same compound?
Answer: 0.21

Question: And the “Retention Time 2.2” value [3]?
Answer: 2.03

Question: What about the “Retention Time 4.2” value [3] of the same compound?
Answer: 0.95

Question: What about the “Retention Time 5.6” value [3] of the same compound?
Answer: 97.01

Question: What about the “Decrease in purity” value [4] of the same compound?
Answer: 0.5

Question: And the “Retention Time 2.2” value [4]?
Answer: 2.47

Question: What about the “Retention Time 4.2” value [4] of the same compound?
Answer: 1.02

Question: And the “Retention Time 5.6” value [4]?
Answer: 96.51

Question: And the “Retention Time 2.2” value [5]?
Answer: 1.42

Question: What about the “Retention Time 4.2” value [5] of the same compound?
Answer: 1.05

Question: And the “Retention Time 5.6” value [5]?
Answer: 97.53

Question: What about the “Decrease in purity” value [6] of the same compound?
Answer: 2.47

Question: What about the “Retention Time 2.2” value [6] of the same compound?
Answer: 3.31

Question: And the “Retention Time 4.2” value [6]?
Answer: 1.06

Question: And the “Retention Time 4.7” value [6]?
Answer: 0.57

Question: And the “Retention Time 5.6” value [6]?
Answer: 95.06

Question: And the “Decrease in purity” value [7]?
Answer: 1.36

Question: And the “Retention Time 2.2” value [7]?
Answer: 4.21

Question: And the “Retention Time 2.6” value [7]?
Answer: 0.58

Question: What about the “Retention Time 4.2” value [7] of the same compound?
Answer: 0.82

Question: And the “Retention Time 4.7” value [7]?
Answer: 0.69

Question: And the “Retention Time 5.6” value [7]?
Answer: 93.7

Question: And the “Decrease in purity” value [8]?
Answer: 1.58

Question: And the “Retention Time 2.2” value [8]?
Answer: 5.63

Question: What about the “Retention Time 2.6” value [8] of the same compound?
Answer: 0.67

Question: What about the “Retention Time 4.2” value [8] of the same compound?
Answer: 0.74

Question: What about the “Retention Time 4.7” value [8] of the same compound?
Answer: 0.85

Question: And the “Retention Time 5.6” value [8]?
Answer: 92.12

Question: What about the “Decrease in purity” value [9] of the same compound?
Answer: 1.05

Question: And the “Retention Time 2.2” value [9]?
Answer: 6.26

Question: And the “Retention Time 2.6” value [9]?
Answer: 0.85

Question: And the “Retention Time 4.2” value [9]?
Answer: 0.85

Question: What about the “Retention Time 4.7” value [9] of the same compound?
Answer: 0.98

Question: What about the “Retention Time 5.6” value [9] of the same compound?
Answer: 91.07

Question: What about the “Retention Time 2.2” value [10] of the same compound?
Answer: 3.39

Question: And the “Retention Time 2.6” value [10]?
Answer: 0.6

Question: And the “Retention Time 4.2” value [10]?
Answer: 0.23

Question: And the “Retention Time 4.7” value [10]?
Answer: 0.54

Question: And the “Retention Time 5.6” value [10]?
Answer: 95.24

Question: What about the “Decrease in purity” value [11] of the same compound?
Answer: 1.81

Question: What about the “Retention Time 2.2” value [11] of the same compound?
Answer: 4.81

Question: And the “Retention Time 2.6” value [11]?
Answer: 0.81

Question: What about the “Retention Time 4.2” value [11] of the same compound?
Answer: 0.23

Question: What about the “Retention Time 4.7” value [11] of the same compound?
Answer: 0.73

Question: What about the “Retention Time 5.6” value [11] of the same compound?
Answer: 93.43

Question: And the “Decrease in purity” value [12]?
Answer: 1.61

Question: What about the “Retention Time 2.2” value [12] of the same compound?
Answer: 5.72

Question: What about the “Retention Time 2.6” value [12] of the same compound?
Answer: 0.9

Question: And the “Retention Time 4.2” value [12]?
Answer: 0.21

Question: What about the “Retention Time 4.7” value [12] of the same compound?
Answer: 0.83

Question: And the “Retention Time 5.6” value [12]?
Answer: 91.82

Question: What about the “Decrease in purity” value [13] of the same compound?
Answer: 0.02

Question: What about the “Retention Time 2.2” value [13] of the same compound?
Answer: 6.45

Question: What about the “Retention Time 2.6” value [13] of the same compound?
Answer: 0.81

Question: What about the “Retention Time 4.7” value [13] of the same compound?
Answer: 0.93

Question: And the “Retention Time 5.6” value [13]?
Answer: 91.8

Question: And the “Decrease in purity” value [14]?
Answer: 2.14

Question: And the “Retention Time 2.2” value [14]?
Answer: 7.38

Question: What about the “Retention Time 2.6” value [14] of the same compound?
Answer: 1.54

Question: And the “Retention Time 4.2” value [14]?
Answer: 0.13

Question: What about the “Retention Time 4.7” value [14] of the same compound?
Answer: 1.11

Question: What about the “Retention Time 5.6” value [14] of the same compound?
Answer: 89.66

Question: What about the “Retention Time 2.2” value [15] of the same compound?
Answer: 5.9

Question: And the “Retention Time 2.6” value [15]?
Answer: 0.94

Question: And the “Retention Time 4.2” value [15]?
Answer: 0.22

Question: And the “Retention Time 4.7” value [15]?
Answer: 0.78

Question: What about the “Retention Time 5.6” value [15] of the same compound?
Answer: 92.85

Question: What about the “Decrease in purity” value [16] of the same compound?
Answer: 3.8

Question: What about the “Retention Time 2.2” value [16] of the same compound?
Answer: 8.12

Question: What about the “Retention Time 2.6” value [16] of the same compound?
Answer: 1.45

Question: And the “Retention Time 4.2” value [16]?
Answer: 0.21

Question: And the “Retention Time 4.7” value [16]?
Answer: 1.17

Question: And the “Retention Time 5.6” value [16]?
Answer: 89.05

Question: And the “Decrease in purity” value [17]?
Answer: 2.25

Question: And the “Retention Time 2.2” value [17]?
Answer: 10.14

Question: And the “Retention Time 2.6” value [17]?
Answer: 1.48

Question: And the “Retention Time 4.2” value [17]?
Answer: 0.13

Question: And the “Retention Time 4.7” value [17]?
Answer: 1.46

Question: And the “Retention Time 5.6” value [17]?
Answer: 86.8

Question: What about the “Decrease in purity” value [18] of the same compound?
Answer: 2.01

Question: What about the “Retention Time 2.2” value [18] of the same compound?
Answer: 11.63

Question: And the “Retention Time 2.6” value [18]?
Answer: 1.78

Question: And the “Retention Time 4.2” value [18]?
Answer: 0.13

Question: And the “Retention Time 4.7” value [18]?
Answer: 1.67

Question: And the “Retention Time 5.6” value [18]?
Answer: 84.79

Question: And the “Retention Time 2.2” value [19]?
Answer: 1.33

Question: And the “Retention Time 4.2” value [19]?
Answer: 1.19

Question: And the “Retention Time 5.6” value [19]?
Answer: 97.48

Question: And the “Decrease in purity” value [20]?
Answer: 2.38

Question: What about the “Retention Time 2.2” value [20] of the same compound?
Answer: 3.73

Question: What about the “Retention Time 4.2” value [20] of the same compound?
Answer: 1.17

Question: What about the “Retention Time 5.6” value [20] of the same compound?
Answer: 95.1

Question: What about the “Decrease in purity” value [21] of the same compound?
Answer: 2.65

Question: And the “Retention Time 2.2” value [21]?
Answer: 5.25

Question: And the “Retention Time 2.6” value [21]?
Answer: 0.67

Question: What about the “Retention Time 4.2” value [21] of the same compound?
Answer: 0.84

Question: What about the “Retention Time 4.7” value [21] of the same compound?
Answer: 0.79

Question: What about the “Retention Time 5.6” value [21] of the same compound?
Answer: 92.45

Question: And the “Decrease in purity” value [22]?
Answer: 1.8

Question: What about the “Retention Time 2.2” value [22] of the same compound?
Answer: 6.63

Question: What about the “Retention Time 2.6” value [22] of the same compound?
Answer: 0.9

Question: What about the “Retention Time 4.2” value [22] of the same compound?
Answer: 0.83

Question: What about the “Retention Time 4.7” value [22] of the same compound?
Answer: 0.99

Question: What about the “Retention Time 5.6” value [22] of the same compound?
Answer: 90.65

Question: And the “Decrease in purity” value (289-MBA-15-A 2 mg/mL pH 6 (Form B), 22 hrs, pH 6.7)?
Answer: 1.5

Source: patent US20220249463A1, “METHODS OF ALTERING CARDIAC REMODELING USING COMPOUNDS THAT PROMOTE GLUCOSE OXIDATION” (IMBRIA PHARMACEUTICALS, INC., priority 2019, published 2022)
